This note sets out measurements from article PMC10683023, “Targeting Glial Cells by Organic Anion-Transporting Polypeptide 1C1 (OATP1C1)-Utilizing L-Thyroxine-Derived Prodrugs” (Journal of Medicinal Chemistry, 2023).

Broadly, the Km is the substrate concentration at which the rate is half of its maximum.

Series [1] is described as follows: Enzymatic bioconversion in mouse liver S9 fraction. The note with it: for Bioconversion rate in mouse liver S9 relative to the corresponding T4 derivative: DIT prodrug faster than T4 prodrug; for Enzymatic stability, remaining percentage, mouse liver S9: after 5 h incubation, 100 μM prodrug; for Enzymatic stability, remaining percentage, mouse liver S9 / half-life at 100 µM: 37 °C, mean ± SD, n = 3; for half-life at 100 µM: mouse, pH 7.4, liver S9 fraction, read-out: Enzymatic bioconversion half-life t1/2, mouse liver. The format is in vitro ADME. As for the experimental part: (§1) The rates of bioactivation of the prodrugs 1–8 in mouse and human liver S9 fractions, as well as in mouse primary astrocyte–microglia homogenate, were determined at +37 °C. The incubation mixtures were prepared by mixing liver S9 subcellular fraction or brain cell homogenate (final protein concentration 1.0 mg/mL) with isotonic Tris–HCl buffer (pH 7.4) and 10 mM prodrug stock solution in DMSO (the initial concentration of prodrugs was 100 μM and the DMSO concentration was […]). The mixture was incubated for 5 h, and the samples ([…]) were withdrawn at appropriate intervals. The enzymatic reaction was terminated by the addition of ice-cold acetonitrile ([…]), and the samples were centrifuged for 5 min at 12 000 rpm at room temperature and kept on ice until the supernatants were analyzed by the HPLC method described below. In blank reactions, the S9 fractions were replaced with the same volume of buffer. The pseudo-first-order half-lives (t1/2) for the rates of bioconversion of the prodrugs were calculated from the slope of the linear portion of the plotted logarithm of the remaining prodrug concentration versus time. The rates of bioactivation of prodrugs 1–8 in human plasma and mouse serum were determined at 37 °C as above by adding 10 mM stock solution of the prodrug to plasma/serum in a ratio of 1:10 and analyzed similarly to the samples from S9 fractions.
(§2) The amount of prodrug 1–8 was determined by the HPLC system, which consisted of an Agilent 1100 binary pump (Agilent Technologies Inc., Wilmington, DE), an 1100 micro vacuum degasser, an HP 1050 Autosampler, and an HP 1050 variable wavelength detector, operated at 230–240 nm. The chromatographic separations were achieved on an Agilent Zorbax SB-C18 analytical column (4.4 mm × 150 mm, 5 μm) (Agilent Technologies Inc., Wilmington, DE) by using isocratic elution of water containing 0.1% formic acid (pH ca. 3.0) and acetonitrile containing 0.1% formic acid with ratios of 50:50, 30:70, 40:60, 50:50, 50:50, 40:60, 40:60, and 30:70 (v/v), respectively, for prodrug 1–8. […] The lower limit of quantification for prodrugs 1–8 was 0.20 μM. These HPLC methods were also accurate, precise, and selective over the range of 0.5–20 μM.

Series [2] in a line: Enzymatic bioconversion in human plasma. It counts as in vitro ADME. The conditions noted are these: after 5 h incubation, 37 °C, mean ± SD, n = 3. As for the experimental part:
as §1, §2

In series [3] the test system is human U-87MG glioma cells. Briefly: Concentration-dependent cellular uptake into human U-87MG glioma cells. The note with it: for Km / Vmax, cellular uptake, U-87MG: 5–400 μM, 30 min, 37 °C. It counts as cell-based. As for the experimental part:
U-87MG (ATCC, HTB-14, unknown origin) was purchased from Lonza (Basel, Switzerland). The cells were cultured in standard conditions (37 °C, 5% CO2) using Dulbecco’s modified Eagle’s medium (DMEM) supplemented with L-glutamine (2.0 mM), heat-inactivated fetal bovine serum (FBS) (10%), penicillin (50 U/mL), and streptomycin (50 μg/mL). U-87MG cells (passages 8–25) were seeded at a density of 1 × 10^5 cells/well onto 24-well plates and used for the uptake experiments 1 day after seeding. All of the studies were carried out as three biological replicates from the same cell passage.
After removal of the culture medium, U-87MG human glioma cells and mouse primary astrocytes were carefully washed with prewarmed Hank’s balanced salt solution (HBSS) containing 125.0 mM NaCl (or choline chloride in Na^+ free conditions), 4.8 mM KCl, 1.2 mM MgSO4, 1.2 mM KH2PO4, 1.3 mM CaCl2, 5.6 mM glucose, and 25.0 mM 4-(2-hydroxyethyl)piperazine-1-ethanesulfonic acid (HEPES) with the pH adjusted to either 7.4 or pH 8.5 with 1 M NaOH (or KOH in sodium-free conditions). In the experiments at lower pH (4.5–6.5), 25.0 mM HEPES was replaced by 2-(N-morpholino) ethanesulfonic acid (MES), and the pH was adjusted to 4.5, 5.5, and 6.5 by 1.0 M NaOH. Preincubation was done with 500 μL of prewarmed HBSS at 37 °C for 10 min before adding the substrate for the uptake experiments. The functionality of OATP1C1 in human glioma U-87MG cells was studied with a known substrate (L-thyroxine, T4) and of oatp1a4, 1a5, and 1a6 in mouse primary astrocytes with [6,7-^3H(N)]-estrone-3-sulfate (ES) by incubating the uptake solution (250 μL in HBSS) consisting of 5–400 μM of the substrate at 37 °C for 30 min. After incubation, the uptake was stopped by adding 500 μL of ice-cold HBSS, and the cells were washed two times with ice-cold HBSS (2 × 500 μL). The cells were then lysed with 500 μL of 0.1 M NaOH (60 min), the lysate was neutralized, and the protein was precipitated with acidic acetonitrile (ACN with 4.8% formic acid). The supernatants were analyzed by the high-performance liquid chromatography (HPLC) methods described below (T4) or by using a liquid scintillation counter (MicroBeta2 counter, PerkinElmer, Waltham, MA) (ES). The concentrations of T4 and ES were calculated from the spiked standard curve and normalized with the protein concentrations. The protein concentrations on each plate were determined as a mean of three samples by Bio-Rad Protein Assay, based on the Bradford dye-binding method, using bovine serum albumin (BSA) as a standard protein and measuring the absorbance (595 nm) by a multiplate reader (EnVision, PerkinElmer, Inc., Waltham, MA). The OATP-mediated uptake was confirmed by changing the pH of the uptake buffer in the absence of sodium ions, and in the case of OATP1C1 in human U-87MG cells, the uptake of T4 (100 μM) was studied in the presence of competing OATP1C1-ligands, diclofenac and flufenamic acid (100 μM), and in the case of oatp1a4/1a5/1a6 in mouse primary astrocytes, the uptake of ES (100 μM) was studied in the presence of competing OATO1A2-ligand, naringin (100 μM).
Cellular uptake of prodrugs 1–8 was studied as described for L-thyroxine above by adding compounds at a concentration of 5–400 μM in prewarmed HBSS buffer (250 μL) on the cell layer and incubating at 37 °C for 30 min (uptake was linear with all compounds up to 30 min). Subsequently, the cells were washed three times with ice-cold HBSS and lysed with 500 μL of 0.1 M NaOH (60 min). The lysate was neutralized; the proteins were precipitated with acidic ACN (containing 4.8% formic acid), and the supernatants were analyzed by the (HPLC) methods described below. The concentrations of each prodrug normalized to protein concentration were calculated from the standard curve prepared by spiking known concentrations of compounds into ACN-precipitated cell lysate. […]

With `CC(C(=O)Oc1c(I)cc(C[C@H](N)C(=O)O)cc1I)c1ccc(-c2ccccc2)c(F)c1` (mixture of isomers) [Prodrug 7, (2S)-2-Amino-3-(4-((2-(2-fluoro-[1,1′-biphenyl]-4-yl)propanoyl)oxy)-3,5-diiodophenyl)propanoic acid], in series [1], the “Bioconversion rate in mouse liver S9 relative to the corresponding T4 derivative” value was “around 3 times”; the “Enzymatic stability, remaining percentage, mouse liver S9” value turned out to be 25.19 ± 6.22%; the half-life at 100 µM worked out at 2.69 ± 0.429 h. The “Enzymatic stability, remaining percentage, human plasma” value in series [2] is listed as 90.52 ± 9.48%. In series [3], the Km stood at 381 ± 73 µM and the “Vmax, cellular uptake, U-87MG” value worked out at 19.8 ± 2.3 nmol/min/mg.
With `N[C@@H](Cc1cc(I)c(OC(=O)c2ccccc2O)c(I)c1)C(=O)O` [Prodrug 3, (S)-2-Amino-3-(4-((2-hydroxybenzoyl)oxy)-3,5-diiodophenyl)propanoic acid], the “Enzymatic stability, remaining percentage, mouse liver S9” value in series [1] came out at 99.06 ± 0.94%. The “Enzymatic stability, remaining percentage, human plasma” value in series [2] was found to be 68.94 ± 2.01%. Moreover, in series [3], the Km came out at 539 ± 97 µM and the “Vmax, cellular uptake, U-87MG” value was 9.9 ± 1.2 nmol/min/mg.
The like results for `CC(C(=O)Oc1c(I)cc(Oc2c(I)cc(C[C@H](N)C(=O)O)cc2I)cc1I)c1ccc(-c2ccccc2)c(F)c1` (mixture of isomers) [Prodrug 8, (2S)-2-Amino-3-(4-(4-((2-(2-fluoro-[1,1′-biphenyl]-4-yl)propanoyl)oxy)-3,5-diiodophenoxy)-3,5-diiodophenyl)propanoic acid] were, in that order, 84.32 ± 0.99%, 97.17 ± 2.83%, 221 ± 48 µM and 21.5 ± 2.4 nmol/min/mg.
With `CC(C(=O)Oc1c(I)cc(Oc2c(I)cc(C[C@H](N)C(=O)O)cc2I)cc1I)c1cccc(C(=O)c2ccccc2)c1` (mixture of isomers) [Prodrug 2, (2S)-2-Amino-3-(4-(4-((2-(3-benzoylphenyl)propanoyl)oxy)-3,5-diiodophenoxy)-3,5-diiodophenyl)propanoic acid], the “Enzymatic stability, remaining percentage, mouse liver S9” value in series [1] turned out to be 87.59 ± 1.20%. Further, in series [2], the “Enzymatic stability, remaining percentage, human plasma” value was found to be 96.47 ± 3.53%. The Km in series [3] is 118 ± 27 µM. In addition, the “Vmax, cellular uptake, U-87MG” value in series [3] was 13 nmol/min/mg; in series [3] (listed as PD2), 13.0 ± 1.3 nmol/min/mg.
On to `N[C@@H](Cc1cc(I)c(Oc2cc(I)c(OC(=O)c3ccccc3O)c(I)c2)c(I)c1)C(=O)O` [Prodrug 4, (S)-2-Amino-3-(4-(4-((2-hydroxybenzoyl)oxy)-3,5-diiodophenoxy)-3,5-diiodophenyl)propanoic acid], for which, in series [1], the “Enzymatic stability, remaining percentage, mouse liver S9” value amounted to 69.18 ± 0.81%. In addition, in series [2], the “Enzymatic stability, remaining percentage, human plasma” value is recorded as 97.17 ± 2.83%. In addition, in series [3], the Km is 106 ± 32 µM and the “Vmax, cellular uptake, U-87MG” value was found to be 9.0 ± 1.1 nmol/min/mg. Also, the “Transport capacity relative to prodrug 3” value in series [3] (at 200 μM concentration, U-87MG cells) was “ca. 3.5 times”. In addition, in series [3] (from Km values, U-87MG cells), the “Affinity relative to corresponding DIT prodrug 3” value was determined as 5 times.
Regarding `COc1ccc2cc([C@H](C)C(=O)Oc3c(I)cc(C[C@H](N)C(=O)O)cc3I)ccc2c1` [Prodrug 5, (S)-2-Amino-3-(3,5-diiodo-4-(((S)-2-(6-methoxynaphthalen-2-yl)propanoyl)oxy)phenyl)propanoic acid], in series [1], the “Bioconversion rate in mouse liver S9 relative to the corresponding T4 derivative” value worked out at 2 times; the “Enzymatic stability, remaining percentage, mouse liver S9” value is 38.26 ± 4.49%; the half-life at 100 µM was determined as 4.15 ± 0.761 h. Moreover, the “Enzymatic stability, remaining percentage, human plasma” value in series [2] is on record as 70.94 ± 29.06%. For the same compound, in series [3], the Km turned out to be 138 ± 79 µM and the “Vmax, cellular uptake, U-87MG” value is listed as 9.0 nmol/min/mg. Also, the “Vmax, cellular uptake, U-87MG” value in series [3] (listed as PD5) worked out at 9.0 ± 3.7 nmol/min/mg.
Regarding `COc1ccc2cc([C@H](C)C(=O)Oc3c(I)cc(Oc4c(I)cc(C[C@H](N)C(=O)O)cc4I)cc3I)ccc2c1` [Prodrug 6, (S)-2-Amino-3-(4-(3,5-diiodo-4-(((S)-2-(6-methoxynaphthalen-2-yl)propanoyl)oxy)phenoxy)-3,5-diiodophenyl)propanoic acid], the “Enzymatic stability, remaining percentage, mouse liver S9” value in series [1] was 78.10 ± 1.88%. Besides, the “Enzymatic stability, remaining percentage, human plasma” value in series [2] was 96.32 ± 3.68%. Moreover, in series [3], the Km is 138 ± 36 µM and the “Vmax, cellular uptake, U-87MG” value was 13.5 nmol/min/mg. The “Vmax, cellular uptake, U-87MG” value in series [3] (listed as PD6) is listed as 13.5 ± 1.6 nmol/min/mg.
